{"source": "patent US20210169961A1", "about": "“HEPATOPROTECTIVE TRADITIONAL CHINESE MEDICINE COMPOSITION, EXTRACT THEREOF, AND PHARMACEUTICAL USE THEREOF” (SHUGUANG HOSPITAL AFFILIATED TO SHANGHAI UNIVERSITY OF …, priority 2018, published 2021)", "type_in_all_cases": "in vivo, human", "key": {"[1]": {"test_system": "patients with HBeAg negative chronic hepatitis B", "assay": "Curative effects on patients with hepatitis B, randomized controlled trial (Example 31)", "conditions": "after 30-month treatment, control group: Entecavir + placebo"}, "[2]": {"test_system": "CHB patients (hepatic fibrosis)", "assay": "Curative effect on patients with hepatic fibrosis, double-blind placebo-control multicenter trial (Example 34)", "conditions": "after 12 months, treatment group: Entecavir + test sample, P<0.001"}, "[3]": {"test_system": "patients with advanced primary hepatocarcinoma after surgery", "assay": "Curative effect of the compound granules on patients with liver cancer (Example 36)", "conditions": "for patients of liver cancer recurred: test sample + Entecavir vs Entecavir"}}}
{"smiles": "C=C1[C@H](CO)[C@@H](O)C[C@@H]1n1cnc2c(=O)[nH]c(N)nc21", "note": "[Entecavir]", "values": [{"measurement": "ALT recurrence rate", "setting": "[1]; treatment group: test sample 60 g clear extract/day + Entecavir 0.5 mg/day", "value": 93.2, "unit": "%"}, {"measurement": "HBsAg averagely reduced by", "setting": "[1]; treatment group: test sample + Entecavir", "value": 0.028, "unit": "log IU/ml"}, {"measurement": "HBeAg levels compared to those before treatment", "setting": "[2]", "value": "remarkably decreased"}, {"measurement": "therapeutic effects on traditional Chinese medicine symptoms: invalid cases", "setting": "[3]; after treatment", "value": 65, "unit": "cases"}, {"measurement": "therapeutic effects on traditional Chinese medicine symptoms: patients with curative effect", "setting": "[3]; after treatment", "value": 0, "unit": "patients"}, {"measurement": "therapeutic effects on traditional Chinese medicine symptoms: valid cases", "setting": "[3]; after treatment", "value": 16, "unit": "cases"}, {"measurement": "patients with nausea and vomiting improved", "setting": "[3]; among 38 patients (treatment group) / 51 patients (control group)", "value": 15, "unit": "cases"}, {"measurement": "patients with tastelessness improved", "setting": "[3]; among 61 patients (treatment group) / 58 patients (control group)", "value": 25, "unit": "cases"}, {"measurement": "patients with stomach distension improved", "setting": "[3]; among 68 patients (treatment group) / 62 patients (control group)", "value": 35, "unit": "cases"}, {"measurement": "patients with fatigue and acratia improved", "setting": "[3]; among 73 patients (treatment group) / 69 patients (control group)", "value": 45, "unit": "cases"}, {"measurement": "patients of liver cancer recurred", "setting": "[3]; at 3 months of follow-up visit", "value": 48, "unit": "patients"}, {"measurement": "patients of liver cancer recurred", "setting": "[3]; at 3 months of treatment", "value": 13, "unit": "patients"}, {"measurement": "patients of liver cancer recurred", "setting": "[3]; at 6 months of treatment", "value": 44, "unit": "patients"}, {"measurement": "accumulative survival rate", "setting": "[3]; treatment group: test sample 60 g clear extract/day + Entecavir 0.5 mg/day, control group: Entecavir 0.5 mg/day", "value": 76.7, "unit": "%"}]}
